The values below come from PMC5665932, “A novel peptide that improves metabolic parameters without adverse central nervous system effects” (Scientific Reports, 2017).

One series relates to UCP1. The series can be described thus: UCP1 expression in 3T3-L1 differentiated adipocytes (Western blot). Format: cell-based. Conditions: for expression of UCP1 in 3T3-L1 adipose cells: 24 h treatment. On the procedure: 3T3-L1 pre-adipocytes (American Type Culture Collection, Rockville, MD, USA) were cultured in complete medium comprising of DMEM (Dulbecco’s Modified Eagle Medium), containing 10% fetal bovine serum (Life Technologies, Carlsbad, CA, USA), 0.11 mg/mL pyruvate, 0.025 g/L penicillin (Sigma-Aldrich, Saint Louis, MO, USA) and 0.1 g/L streptomycin (Life Technologies, Carlsbad, CA, USA) at 37 °C and 5% CO2. For the experiments analyzing UCP1 expression, 3T3-L1 cells were seeded in 12-well plates at a confluence of 10 × 10^4 cells/mL/well. One day later, cells were differentiated using normal culture medium supplemented with 500 μM isobutylmethylxanthine (Sigma, St. Louis, MO, USA), 1 μM dexamethasone (Sigma, St. Louis, MO, USA), and 0.85 μg/mL bovine insulin (Sigma, St. Louis, MO, USA). After three days, the differentiation medium was changed to normal culture medium supplemented with 0.85 μg/mL bovine insulin. The fresh medium was renewed every 2 days. After 12 days of differentiation, cells were exposed for 24 h with either 5 µM rosiglitazone (RSG, Sigma, St. Louis, MO, USA), HP or Pep19 at different concentrations or with vehicle (normal culture medium plus protease inhibitor cocktail (Roche, Germany). Subsequent experiments were performed after preincubation for 2 min with and in the absence of either 5 µM rosiglitazone, 1 µM […], 1 µM AM251, 1 µM HP or vehicle (normal culture medium plus protease inhibitor cocktail (Roche, Germany) with subsequent addition of 1 µM Pep19 in medium. For Western-blot assays, cells were washed twice with ice-cold PBS, the supernatant was removed, and cells were lysed with 40 µL Laemmli buffer, transfered to tubes, sonicated and heated 95 °C during 5 min. Samples were kept at −20 °C till use. Before using, samples were thawed on ice, centrifuged, and proteins were separated on a 12% SDS-PAGE, followed by transfer to PVDF membranes (Merck Millipore, Darmstadt, Germany). […] Bands were visualized with Super-Signal West Pico Chemiluminescent substrate (Thermo Scientific) and quantified using ImageJ 1.49.
For orientation: Immunoblotting shows a protein as a band on a membrane.

The test system of series [1] is DIO Wistar rats. Put plainly: Diet-induced obesity model: body weight, food intake, adipose tissue masses, adiposity index. Format: in vivo. The note with it: oral by gavage, 100 µg/Kg, mean ± SEM. On the procedure: (§1) For the diet-induced obesity (DIO) model, male Wistar rats received instead of water a 20% sucrose solution for 13 consecutive weeks. All animals including controls received food ad libitum. Pep19 was administrated orally by gavages. After 13 weeks of treatment all rats were sacrificed by decapitation (after overnight fasting). Blood from the trunk was collected into tubes without anticoagulants and immediately centrifuged (3000 x g for 15 min at 4 °C), and serum was stored at −20 °C. Blood serum was used for all biochemical determinations. The adipose tissues masses were used to calculate the adiposity index (the percentage of the sum of all white adipose tissue pads in relation to total body weight).

The test system of series [2] is DIO Wistar rats. The series can be described thus: Diet-induced obesity model: serum/blood biochemical determinations. The note with it: oral by gavage, 100 µg/Kg, mean ± SEM. Format: in vivo. Here is the method:
as §1
Serum cholesterol and triglycerides were quantified enzymatically using commercial kits from Labtest Diagnóstica (Triglicerides Liquiform andLiquiform, Lagoa Santa, MG, Brazil). Insulin levels were determined using specific rat radioimmunoassay kits (Millipore Corporation, Billerica, MA, USA). Blood glucose concentration was measured by a glucometer (Advantage, Roche Diagnostics Corporation, Indianapolis, USA).

The next series concerns Male Wistar rats. The series can be described thus: Forced swim test. The format is in vivo. The note with it: first 5 min of the swim test, n = 6/group (Pep19), n = 8–10/group (rimonabant). Here is the method:
The forced swim test was based on previous designs. Male Wistar rats were placed in a cylindrical plexiglass tank (50 cm high and 30 cm diameter) filled with water (19 °C) up to a level of 25 cm from the bottom. The animal’s behavior during the first 5 min of the swim test was scored by a trained observer and the following measures were taken: (1) time spent swimming, defined as movements of all four limbs, swimming around the tank or diving and (2) time spent floating, defined as the time the animal remained immobile with only occasional slight movements to keep the body balanced and the nose above the water.

For the next series, the system named is c-Fos. The series can be described thus: Mice brain c-Fos protein immunohistochemistry. Format: in vivo. The note with it: 1 mg/kg administrated orally, two hours post administration, C57BL/6J mice, vs vehicle (water), n = 3/group. Here is the method:
Mice C57BL/6J (25 ± 2 g; n = 3 per group) were assigned randomly to receive gavage (v.o.) of either vehicle (water), or 1 mg/kg body weight HP or 1 mg/kg Pep19. All solutions were prepared minutes before use. Two hours post administrations mice were deeply anaesthetized with ketamine and xylazine (i.p.; […], respectively) and perfused transcardially with heparinised saline (5000 UI/kg) in phosphate buffer (PB 0.1 M, pH 7.3) followed by 4% paraformaldehyde in PB 0.1 M. The brains were post fixed and kept in 30% sucrose in 0.1 M PB to cryoprotect the tissue. […]
The regions of interest were identified based on a stereotaxic atlas[45]: arcuate hypothalamic nucleus (Arc), ventromedial hypothalamic nucleus (VMN), periaqueductal grey (PAG), orbitofrontal cortex (VO), accumbens nucleus (Acb). The corresponding images were captured using a Nikon Eclipse E800, camera DC-F1 with Nis Element program. cFos positive cells per section were counted manually using ImageJ (NIH/USA). Results are are expressed as the means ± standard error of the mean (SEM) of c-Fos immunoreactive cells per section in each brain area (5 sections/brain/structure). […] Data were statistically analyzed with GraphPad Prism software (GraphPad Software Inc, San Diego, CA, USA).

The next series deals with C57BL/6J mice. Put plainly: Tetrad cannabinoid tests (catalepsy, tail temperature, locomotor activity, hot plate). The format is in vivo. Conditions: n = 6/group. Here is the method:
C57BL/6J mice were treated i.p. with Pep19 (0.1 or 1 mg/kg), the CB1R agonist WIN55,212-2 (5 mg/kg) or vehicle (n = 6 per group) and evaluated in the tetrad cannabinoid tests. Another group of animals received Pep19 (0.1 or 1 mg/kg) or saline i.p. for 10 days, once a day. In the last day of treatment the animals were subjected to the tetrad cannabinoid tests 30 minutes after the i.p. administration. The CB1 agonist WIN55,212-2 (5 mg/kg) was administrated i.p. 30 minutes before the experiments as a positive control (n = 6 per group).
It was assayed by the bar test[40], 30 min after drug administration. Briefly, each mouse was placed on a bar oriented parallel to and approximately 4 cm above the bench surface. Cataleptic behavior was defined as the time the animal remained motionless holding on to the bar; cutoff = 300 s[41].
It was determined by using a thermal probe (Thermocom®, Nashua, NH 03062, EUA) positioned 50 cm of the animal. The mean of five pictures of five different tail regions was compared between a basal evaluation and another observation 35 min after drug administration.
It was determined by an open field test, in which a mouse was placed in a circular cage (40 cm diameter), 37 min after drug administration. The distance traveled by the animal was recorded for 10 min by the software ANY-MAZE (Stoelting).
The mouse was placed on a heated plate at 56 °C. An experimenter measured the time it took for the mouse to lick the paws or jump off of the hot plate; cutoff = 30 s[42]. The variation between a basal evaluation and another one taken 45 min after drug administration was defined as the result.

Turning to `CN(CCOc1ccc(CC2SC(=O)NC2=O)cc1)c1ccccn1` (stereo not shown) [RSG, Rosiglitazone], the “expression of UCP1 in 3T3-L1 adipose cells” value in the series on UCP1 (5 µM, positive control) is “increased the expression of UCP1”.
In the case of `Cc1c(C(=O)NN2CCCCC2)nn(-c2ccc(Cl)cc2Cl)c1-c1ccc(Cl)cc1` [Rimonabant], in the series with DIO Wistar rats [1], the “Body weight (% of control day zero)” value is recorded as 111 ± 1.0 (n = 10) % of control day zero, the “Gonadal Adipose Tissue weight” value is listed as 1.75 ± 0.1 (n = 10) g, the “Mesenteric Adipose Tissue weight” value is 0.86 ± 0.1 (n = 9) g and the “Retroperitoneal Adipose Tissue weight” value is 2.10 ± 0.1 (n = 10) g. In the series with DIO Wistar rats [1] (percentage of the sum of all white adipose tissue pads in relation to total body weight), the “Adiposity Index (total/100 g)” value is given as 5.85 ± 0.2 (n = 9) total/100 g. Besides, in the series on DIO Wistar rats [2] (glucometer), the Glucose level is reported as 118.3 ± 4.2(n = 9) mg/dl. Moreover, in the series on DIO Wistar rats [2] (serum), the “Cholesterol (% of control day zero)” value is 98.51 ± 5.8 (n = 9) % of control day zero and the “Triacylglycerol (% of control day zero)” value is on record as 112 ± 7.7 (n = 10) % of control day zero. Moreover, the Insulin with DIO Wistar rats [2] (serum, radioimmunoassay) was 2.71 ± 0.8 (n = 5) ng/mL. Also, in the series with Male Wistar rats, the “forced swim test: time spent swimming and time spent floating” value is “affected both time spent swimming (empty bars) and time spent floating”.
As to “PVNFKFLSH [HP, Hemopressin, …, inverse agonist of cannabinoid type 1 receptors]”, the “expression of UCP1 in 3T3-L1 adipose cells” value in the series with UCP1 (0.1–10 µM, GAPDH loading control) is on record as “increased the expression of UCP1”. Further, the “number of cFos positive cells in brain areas (Arc, VMN, PAG, VO, Acb)” value with c-Fos was “increased the number of cFos positive cells in Arc, VMN and PAG”.
In the case of `Cc1c(C(=O)NN2CCCCC2)nn(-c2ccc(Cl)cc2Cl)c1-c1ccc(I)cc1` [AM251], the “effect on UCP1 activation by Pep19” value with UCP1 (1 µM, preincubation 2 min, then Pep19 1 µM for 24 h, 3T3-L1 adipocyte cells) is “prevented UCP1 activation by Pep19”.
Regarding `Cc1c(C(=O)c2cccc3ccccc23)c2cccc3c2n1[C@H](CN1CCOCC1)CO3` [WIN55,212–2], in the series with C57BL/6J mice (5 mg/kg i.p. 30 minutes before the experiments, P<0.05), the “cannabinoid tetrad, positive control of the chronic experiment” value was “affected all parameters evaluated”. For the same compound, in the series on C57BL/6J mice (5 mg/kg i.p., positive control, p < 0.05), the “cannabinoid tetrad (catalepsy, hot plate, locomotor activity, tail temperature)” value is “affected all the parameters evaluated”.
